This note sets out measurements from patent US9481684B2, “Gonadotropin releasing hormone receptor antagonists, method for the preparation thereof and pharmaceutical composition comprising the same” (SK CHEMICALS CO., LTD., priority 2012, dated 2016).

In assay [1] the target is T1, GnRH receptor (Homo sapiens, UniProt P30968).
T1 sequence (P30968 1-328): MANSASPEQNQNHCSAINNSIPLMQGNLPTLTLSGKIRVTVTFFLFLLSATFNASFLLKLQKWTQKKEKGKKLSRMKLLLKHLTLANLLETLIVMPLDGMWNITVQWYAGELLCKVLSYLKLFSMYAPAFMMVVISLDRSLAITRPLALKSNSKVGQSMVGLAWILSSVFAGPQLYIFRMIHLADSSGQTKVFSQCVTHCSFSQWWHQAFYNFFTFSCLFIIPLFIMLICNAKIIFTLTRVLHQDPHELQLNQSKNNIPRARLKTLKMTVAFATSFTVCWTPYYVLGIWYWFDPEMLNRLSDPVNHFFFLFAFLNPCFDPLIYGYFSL
The assay can be described thus: NFAT reporter (luciferase) gene expression assay for antagonistic effect on GnRH receptor, HEK293 transformed with pcDNA3.1/GnRH receptor and pGL4/NFAT promoter. The note with it: compound at 100 nM; leuprolide acetate as ligand; HEK293; read-out: NFAT reporter activity inhibition (%) at 100 nM. It counts as cell-based. The method, then:
For evaluation of antagonistic effect on GnRH receptor, double-transformed cell line, HEK293 (ATCC CRL-1573) which is transformed with pcDNA3.1/GnRH receptor and pGL4/NFAT promoter, was employed.
To conduct a GnRH receptor assay, the HEK293 (ATCC CRL-1573) cell line was diluted at a density of 3×10^4 cells/well in a DMEM medium supplemented with 10% FBS, 1% Penicillin-Streptomycin, and plated into polylysine-coated 96-well plates having a white-clear bottom, followed by incubating the cells at 37° C. for 24 hrs. Then, the medium was changed with a serum-free DMEM medium (1% Penicillin-Streptomycin), and the cells were incubated for an additional 16 hrs before use.
Test compounds were added to the wells in an amount of 1 μM to 0.01 nM, respectively, and further incubated for 1 hr. Then, leuprolide acetate as a ligand (Sigma) was added to the wells in an amount of 1 nM or 20 nM and subjected to an additional incubation for 6 hrs. The reagent of Luciferase assay system (Promega, Cat. No. E1500) was added to the wells and luminescence was measured using a luminometer (PerkinElmer, VICTOR3™, 1420 Multilabel Counter). The compound of formula 10b described in J. Med. Chem. 2008, 51, 7478 was used as a comparative compound.
Each sample was analyzed at a 6-dose level and the NFAT reporter inhibitory rate (%) of the inventive compounds was calculated according to the following equation based on the measured luminescence. Inhibition (%)={1−(compound−negative control)/(positive control−negative control)}×100 [Equation]
wherein, positive control is GnRH treated group; and negative control is non-treated group.

For assay [2], the target named is T1, GnRH receptor. The assay can be described thus: GnRH receptor-membrane binding assay ([125I]-D-Trp6-LHRH displacement). The note with it: compound at 10 nM; 0.2 nM [125I]-D-Trp6-LHRH; CHO-K1 GnRH receptor membrane; read-out: GnRH binding inhibition (%) at 10 nM. Set-up: purchased PerkinElmer; host or cells: CHO-K1 (ATCC CCL-61), stably transfected. The method, then: A GnRH receptor membrane binding assay was carried out for the compounds of the present invention by employing a membrane substrate (PerkinElmer) isolated from CHO-K1 cells (ATCC CCL-61) stably transfected with a GnRH receptor.
A reaction was initiated by the addition of a 0.2 nM [^125I]-labeled D-Trp^6-LHRH peptide and the GnRH receptor membrane substrate at a density of 1 μg/250 μL/well, together with the inventive compounds at various concentrations ranging from 0.1 nM to 100 nM, to a binding buffer composed of 25 mM Hepes (pH 7.4), 10 mM MgCl2, 1 mM CaCl2 and 0.5% BSA (pH 7.4). The reaction mixture was incubated at 27° C. for 1 hr and subjected to vacuum suction for binding to a filter (Fitermat A, PerkinElmer). The filter was washed several times with 50 mM tris-HCl buffer to terminate the reaction. The radioactivity binding to the filter was measured using MicroBeta2 TriLux (PerkinElmer). The binding inhibition rate (%) of the inventive compounds were analyzed on the basis of the measured radioactivity, and IC50 value was calculated using a non-linear least square regression method with Prism (GraphPad, Inc.).

Broadly, the inhibition is the relative decrease from the control value, in per cent. Consider `CONC(=O)Nc1cccc(C(Cn2c(=O)c3c(n(Cc4c(F)cccc4C(F)(F)F)c2=O)COC32CCN(Cc3ccc(C(F)(F)F)o3)CC2)NC(=O)OC(C)(C)C)c1` (centres unmarked) [Example 63, tert-butyl (2-(1-(2-fluoro-6-(trifluoromethyl)benzyl)-2,4-dioxo-1′-((5-(trifluoromethyl)furan-2-yl)methyl)-1H-spiro[furo[3,4-d]pyrimidine-5,4′-piperidin]-3(2H,4H,7H)-yl)-1-(3-(3-methoxyureido)phenyl)ethyl)carbamate], for which the inhibition at 0.1 µM at GnRH receptor [1] was 100%. Also, the inhibition at 0.01 µM on GnRH receptor [2] stood at 89.8%.
